Test results published in patent publication US20110269231A1, “PROTEOGLYCAN-BINDING PEPTIDES THAT MODULATE STEM CELL BEHAVIOR” (WISCONSIN ALUMNI RESEARCH FOUNDATION, priority 2010, published 2011).
Square brackets hold non-standard residues; d marks the D form. Ends that are not written are not given here. Gla = N[C@@H](CC(C(=O)O)C(=O)O)C(=O)O

What was measured:
hMSCs [1] = assay: hMSC adhesion on RGESP- and RGDSP-presenting SAMs; type: cell-based, human; settings: for hMSC attachment (number per unit area): RGDSP=0.0001, 0.001 or 0.01 vs RGESP alone, 12 hrs attachment
Protocol: (§1) To maintain multipotency, hMSCs were expanded at low density on tissue culture treated polystyrene plates. At passage 6, cells were harvested from the plate, suspended in medium supplemented with 10% fetal bovine serum, and counted using a hemacytometer. Cells were collected as a pellet by centrifugation at 1100 rpm for 5 minutes, the media was decanted off of the pellet, and the cells were suspended in fresh αMEM at a density of 20,000 cells/250 μL. SAM preparation and peptide conjugation were performed using the protocols described above Immediately after peptide conjugation, SAMs were placed into 1 mL of 1× PBS (pH 7.4) in a 12-well tissue culture plate to prevent degradation of the monolayer due to air oxidation. PBS was aspirated from the wells and replaced with 1.25 mL of αMEM, followed by addition of 250 μL of the cell suspension directly over the SAM substrate in each well. Plates were then gently rocked for 10 seconds to evenly distribute cells over the substrate surface. Substrates were then incubated for a specified time frame (12 hrs for RGESP/RGDSP SAMs, 4 hrs for RGDSP/TYRSRKY SAM in a humid environment at 37° C., 5% CO2 to allow hMSC attachment. At the end of the attachment period, the hMSC growth media was aspirated from the well and the substrates were gently washed with sterile 1× PBS to remove any loosely bound cells. The 1× PBS solution was then replaced with fresh medium. Brightfield photomicrographs of cells were then collected using an Olympus IX51 inverted microscope.
(§2) hMSCs were seeded on the SAMs as described previously. After washing away loosely bound cells using 1× PBS, cytoskeletal immunostaining of hMSCs was performed by following the protocol supplied by the manufacturer. Briefly, a 4% paraformaldehyde solution in 1× PBS was added to the wells for 15 minutes to fix the cells, followed by a 5 minute incubation in a 1× PBS solution containing 0.05% Tween-20 to permeabilize the cells. […] After blocking, a 1× PBS solution containing an anti-Vinculin primary antibody was added to each well and allowed to incubate at room temperature for 60 minutes. The wells were then washed gently three times using a 1× PBS solution containing 0.1 wt % bovine serum albumin. Immediately after washing, a 1× PBS solution containing a fluorescein-tagged […] secondary antibody and a TRITC-tagged anti-Phalloidin antibody was added to each well and allowed to incubate at room temperature for 45 minutes. Substrates were then washed using the method described previously. Cytoskeletal staining was analyzed using an Olympus IX51 inverted epifluorescent microscope equipped with FITC and TRITC filter cube sets.

[2] = tested on: human umbilical vein endothelial cells (HUVECs); assay: HUVEC proliferation versus KRTGQYKL surface density and FGF-2 concentration; type: cell-based; settings: 2% RGDSP, 10% FBS
Protocol: Human umbilical vein endothelial cells (HUVECs) as a model cell type were used to investigate the correlation between the surface density of bound heparin PGs, the concentration of soluble FGF-2, and the extent of up-regulation of FGF-mediated cell proliferation.
HUVECs were cultured according to the protocol supplied by the manufacturer. Sub-confluent cells were harvested from the plate, suspended in M199 supplemented with 10% FBS, and counted using a hemacytometer. Cells were collected as a pellet by centrifugation at 1100 rpm for 5 minutes, the media was decanted off of the pellet, and the cells were suspended in fresh serum-supplemented M199 at a density of 20,000 cells/250 μL. SAMs presenting 2% RGDSP (SEQ ID NO: 8) and various densities of KRTGQYKL (SEQ ID NO: 1) were prepared by incubating NHS-activated SAMs in 1× PBS solutions containing 125 μM RGDSP (SEQ ID NO: 8), and various molar ratios of KRTGQYKL (SEQ ID NO: 1) and TYRKKGLQ (SEQ ID NO: 9) at a total concentration of 125 μM Immediately after peptide conjugation, HUVECs were seeded on the SAM substrates at a density of 10,000 cells/cm^2 in M199 supplemented with 10% FBS. […] Brightfield photomicrographs (40× mag) of each substrate were collected on an Olympus IX51 inverted epifluorescent microscope at t=0, 24, 48, and 72 hrs, and the total number of cells per viewing area was counted manually.

[3] = Binding of synthetic KRT peptide to hydroxyapatite (micro-BCA depletion); settings: 50 μM peptide, 1 mg hydroxyapatite, 30 minutes at 37° C.
Protocol: A 50 μM peptide solution containing the synthetic KRT peptide, KRTGQYKLGGGAAAA(Gla)PRR(Gla)VA(Gla)L (SEQ ID NO: 12), was incubated with 1 mg of hydroxyapatite particles for 30 minutes at 37° C. After incubation, the concentration of peptide in solution was determined using a micro-BCA assay (Pierce) as a measure of the depletion of the peptide from solution due to hydroxyapatite binding.

hMSCs [4] = assay: hMSC projected cell area on SAMs presenting RGDSP and TYRSRKY; type: cell-based, human
Protocol: as §1, §2

hMSCs [5] = assay: hMSC proliferation on KRTGQYKL-SAMs in the presence of FBS and PD 173074; type: cell-based, human; settings: 200 nM PD 173074, 10% FBS; FIG. 11
Protocol: Proliferation of hMSCs cultured on KRTGQYKL-SAMs in medium supplemented with FBS and PD 173074 was determined PD 173074 is a soluble inhibitor of FGF-2 and FGF-4 cognate receptors FGF receptor-1 and -3. hMSCs were cultured on SAMs presenting 2% RGDSP (SEQ ID NO: 8) and either 2% KRTGQYL (SEQ ID NO: 1) or TYRKKGLQ (SEQ ID NO: 9) in medium supplemented with 200 nM PD 173074 and 10% FBS.
hMSCs were expanded at low density on tissue culture treated polystyrene plates using the method described previously by Sotiropoulou et al. to maintain […] (Sotiropoulou et al., “Characterization of the optimal culture conditions for clinical scale production of human mesenchymal stem cells,” Stem Cells, 24:462 (2006)). At passage 6, cells were harvested from the plate, suspended in medium supplemented with 10% fetal bovine serum, and counted using a hemacytometer. Cells were collected as a pellet by centrifugation at 1100 rpm for 5 minutes, the media was decanted off of the pellet, and the cells were suspended in αMEM supplemented with 10% FBS at a density of 20,000 cells/250 μL. […] The total number of cells per viewing area was counted manually for 3 samples per condition.

recombinant human FGF-2 = molecular target: T1, recombinant human FGF-2 (human, UniProt P09038 135-288, limits assumed); assay: PM-IRRAS of 1% KRTGQYKL-SAMs after 20 min in 1x PBS with FGF-2
T1 construct: also called rhFGF-2; fibroblast growth factor-2
T1 sequence (P09038 135-288 limits assumed): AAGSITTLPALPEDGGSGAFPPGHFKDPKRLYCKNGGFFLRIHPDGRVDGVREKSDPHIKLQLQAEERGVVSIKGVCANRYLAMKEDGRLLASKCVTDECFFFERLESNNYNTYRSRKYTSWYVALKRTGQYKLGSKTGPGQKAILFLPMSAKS
Protocol: PM-IRRAS was used to characterize FGF-2 binding onto […]-SAMs. 1% […] SAMs were incubated in a lx PBS solution (pH 7.4) containing 10 μg/mL recombinant human FGF-2 for 20 minutes and analyzed using PM-IRRAS.

[6] = molecular target: T2, alpha-5 beta-1 integrins (on human mesenchymal stem cells) (human, UniProt P08648 42-1049; P05556 21-798); assay: hMSCs cultured on RGDSP-presenting SAMs in osteogenic induction medium (cell area, cell number, alkaline phosphatase)
T2 construct: whole, on cells; Endogenous integrin on hMSCs; also called hMSC integrin receptors
T2 sequence (P08648 42-1049, chain 1 of 2): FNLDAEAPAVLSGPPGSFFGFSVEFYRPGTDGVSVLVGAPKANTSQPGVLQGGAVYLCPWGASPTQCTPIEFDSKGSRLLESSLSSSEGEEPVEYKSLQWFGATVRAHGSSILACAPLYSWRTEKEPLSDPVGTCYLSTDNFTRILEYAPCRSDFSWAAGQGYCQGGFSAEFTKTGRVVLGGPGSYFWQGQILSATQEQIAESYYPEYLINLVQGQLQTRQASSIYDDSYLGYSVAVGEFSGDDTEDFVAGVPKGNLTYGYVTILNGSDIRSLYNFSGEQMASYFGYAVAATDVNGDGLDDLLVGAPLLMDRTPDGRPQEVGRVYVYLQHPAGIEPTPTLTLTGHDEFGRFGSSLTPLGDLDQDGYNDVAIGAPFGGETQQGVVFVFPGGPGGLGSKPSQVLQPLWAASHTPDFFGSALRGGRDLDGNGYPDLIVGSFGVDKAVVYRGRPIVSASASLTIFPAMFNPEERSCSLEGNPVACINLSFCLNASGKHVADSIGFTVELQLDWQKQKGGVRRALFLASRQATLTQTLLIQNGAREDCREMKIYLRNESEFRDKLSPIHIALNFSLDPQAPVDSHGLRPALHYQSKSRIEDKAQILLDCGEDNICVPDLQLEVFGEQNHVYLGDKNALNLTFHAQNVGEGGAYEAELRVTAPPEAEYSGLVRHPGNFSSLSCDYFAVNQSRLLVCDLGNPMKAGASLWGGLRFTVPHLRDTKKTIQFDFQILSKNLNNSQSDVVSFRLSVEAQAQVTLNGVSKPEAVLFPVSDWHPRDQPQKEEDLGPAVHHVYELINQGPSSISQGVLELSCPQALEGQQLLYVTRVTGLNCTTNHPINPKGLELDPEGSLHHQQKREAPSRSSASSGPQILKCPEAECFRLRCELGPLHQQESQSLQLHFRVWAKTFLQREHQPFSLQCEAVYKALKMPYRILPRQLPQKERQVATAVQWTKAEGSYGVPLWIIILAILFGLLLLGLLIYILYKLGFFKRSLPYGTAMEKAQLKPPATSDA
T2 sequence (P05556 21-798, chain 2 of 2): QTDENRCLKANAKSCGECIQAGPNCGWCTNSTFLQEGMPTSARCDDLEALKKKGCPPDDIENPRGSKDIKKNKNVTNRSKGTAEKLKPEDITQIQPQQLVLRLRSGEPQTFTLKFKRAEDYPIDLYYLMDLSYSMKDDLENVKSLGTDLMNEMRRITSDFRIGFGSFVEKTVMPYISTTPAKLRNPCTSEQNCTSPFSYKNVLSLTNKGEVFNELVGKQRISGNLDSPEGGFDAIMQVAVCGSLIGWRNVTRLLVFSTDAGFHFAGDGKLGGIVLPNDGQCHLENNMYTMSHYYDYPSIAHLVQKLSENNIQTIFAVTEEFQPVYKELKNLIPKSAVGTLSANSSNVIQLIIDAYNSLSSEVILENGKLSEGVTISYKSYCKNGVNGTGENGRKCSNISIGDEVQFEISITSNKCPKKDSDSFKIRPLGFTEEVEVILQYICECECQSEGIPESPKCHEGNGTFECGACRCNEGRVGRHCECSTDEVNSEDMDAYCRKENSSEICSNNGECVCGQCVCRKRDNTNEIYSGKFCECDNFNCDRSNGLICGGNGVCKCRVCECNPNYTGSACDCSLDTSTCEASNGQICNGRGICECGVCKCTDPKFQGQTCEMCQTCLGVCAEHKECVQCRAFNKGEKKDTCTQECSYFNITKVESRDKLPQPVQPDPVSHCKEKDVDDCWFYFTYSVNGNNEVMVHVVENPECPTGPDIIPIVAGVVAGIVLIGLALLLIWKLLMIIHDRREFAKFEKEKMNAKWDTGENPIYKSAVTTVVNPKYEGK
Protocol: SAMs were prepared as previously described. Low passage number hMSCs were harvested from polystyrene plates and seeded on SAMs presenting RGDSP (SEQ ID NO: 8), RGDSP(SEQ ID NO: 8)/[…](SEQ ID NO: 1), or RGDSP(SEQ ID NO: 8)/TYRSRKY(SEQ ID NO: 2), at specified surface densities at a cell density of 2500 cells/cm². Cells were cultured in αMEM basal medium supplemented with 10% FBS, 50 μg/mL 2-phosphate ascorbic acid, 10 mM β-glycerophosphate, and 100 nM dexamethasone for 7 days. Brightfield images of cells were collected to measure cell projected area and quantification of cell number as a function of time. At the end of the 7-day culture period, alkaline phosphatase activity was analyzed using the SensoLyte FDP alkaline phosphatase assay kid (Anaspec, Fremont, Calif.).

Molecule: RGESP (not fully specified (C-terminus)) [amine-terminated peptide co-immobilized with RGDSP on SAMs, reference compound]
- influence of co-immobilized peptide on RGDSP-dependent hMSC adhesion (hMSCs [1]): did not influence RGDSP-dependent hMSC adhesion
- hMSC attachment (number per unit area) (hMSCs [1]): absent

Molecule: KRTGQYKL
- HUVEC number ([2]; surface density of 2% KRTGQYKL, 1 ng/mL FGF-2): significant increase
- HUVEC number ([2]; surface density of KRTGQYKL>0.1%, 5 ng/mL FGF-2, by 72 hours): significant increase

Molecule: KRTGQYKLGGGAAAA(Gla)PRR(Gla)VA(Gla)L (KRTGQYKLGGGAAAA[Gla]PRR[Gla]VA[Gla]L; not fully specified (C-terminus); printed as KRTGQYKLGGGAAAA(Gla)PRR(Gla)VA(Gla)L) [KRT peptide]
- peptide bound by hydroxyapatite particles [3]: 66.08 nmol/m^2

Molecule: RGDSP
- number of focal adhesion complexes versus RGDSP surface density (hMSCs [1]; FIGS. 36 and 38): direct correlation
- hMSC attachment (number per unit area) (hMSCs [1]): significant number of hMSCs were present
- hMSC morphology (hMSCs [1]; higher RGDSP densities (RGDSP=0.001 or 0.01)): more well-spread morphology
- hMSC morphology (hMSCs [1]; low density of RGDSP (RGDSP=0.0001)): polarized, spindle-shaped morphology

Molecule: TYRSRKY
- hMSC morphology (projected cell area) (hMSCs [4]; 0.1% RGDSP, 0.1-1% TYRSRKY, 10% FBS): rounded morphology
- hMSC morphology (projected cell area) (hMSCs [4]; 0.1% RGDSP, high TYRSRKY density, absence of serum): well-spread morphology
- hMSC morphology (projected cell area) (hMSCs [4]; 0.1% RGDSP, low TYRSRKY surface density, absence of serum): rounded hMSCs morphology
- hMSC morphology (projected cell area) (hMSCs [4]; 1.0% RGDSP, 0.1-1.0% TYRSRKY, absence of serum): well-spread hMSC morphology
- hMSC spreading (hMSCs [4]; 1.0% RGDSP, TYRSRKY>0.5%, 10% FBS): decrease in hMSC spreading
- hMSC morphology (projected cell area) (hMSCs [4]; SAMs presenting 0.1-1.0% TYRSRKY, no RGDSP, presence or absence of serum): rounded morphology

Molecule: CCN(CC)CCCCNc1ncc2cc(-c3cc(OC)cc(OC)c3)c(NC(=O)NC(C)(C)C)nc2n1 [PD 173074]
- increased proliferation of hMSCs on KRTGQYKL SAMs (hMSCs [5]): completely abolished

B1: KRTGQYKL synthetic heparin-binding peptide (SEQ ID NO: 1), immobilized on a self-assembled monolayer (peptide)
peptide: KRTGQYKL-NH2
modifications: also: immobilized on oligo(ethylene glycol) alkanethiolate SAM on gold
notes: Made by Fmoc solid phase synthesis on Rink amide MBHA resin
- binding result (recombinant human FGF-2): no binding (tested: 10 µg/mL recombinant human FGF-2)

B2: RGDSP cell adhesion (integrin-binding) peptide (SEQ ID NO: 8), immobilized on a self-assembled monolayer (peptide)
peptide: RGDSP-NH2
modifications: also: immobilized on SAM on gold
notes: Made by Fmoc solid phase synthesis on Rink amide MBHA resin and conjugated to a SAM on gold; also called RGDSP SAMs; cell-adhesion peptide
- binding result [6]: binds
